From ChEMBL document CHEMBL4270553, “Synthesis and anticancer activity of new dihydropyrimidinone derivatives” (Eur J Med Chem, 2018) come the findings set out here.

Holding throughout (assay type): functional
One assay concerns UO-31. The experiment in a line: Antiproliferative activity against human UO31 cells assessed as growth inhibition at 10 uM after 48 hrs by sulforhodamine B assay relative to control. As to conditions: UO-31, 48 h, read-out: GI.
A further assay relates to K562. The experiment in a line: Antiproliferative activity against human K562 cells assessed as growth inhibition at 10 uM after 48 hrs by sulforhodamine B assay relative to control. The conditions noted are these: K562, 48 h, read-out: GI.
The subject of the next assay is CAKI-1. The experiment in a line: Antiproliferative activity against human Caki1 cells assessed as growth inhibition at 10 uM after 48 hrs by sulforhodamine B assay relative to control. As to conditions: CAKI-1, 48 h, read-out: GI.
In a further assay the test system is SF-295. The experiment in a line: Antiproliferative activity against human SF295 cells assessed as growth inhibition at 10 uM after 48 hrs by sulforhodamine B assay relative to control. As to conditions: SF-295, 48 h, read-out: GI.
The next assay relates to T47D. As to the kind of experiment: Antiproliferative activity against human T47D cells assessed as growth inhibition at 10 uM after 48 hrs by sulforhodamine B assay relative to control. The conditions noted are these: read-out: GI.
The next assay concerns NCI-H522. The experiment in a line: Antiproliferative activity against human NCI-H522 cells assessed as growth inhibition at 10 uM after 48 hrs by sulforhodamine B assay relative to control. As to conditions: NCI-H522, 48 h, read-out: GI.
The test system of a further assay is SR. The experiment in a line: Antiproliferative activity against human SR cells assessed as growth inhibition at 10 uM after 48 hrs by sulforhodamine B assay relative to control. As to conditions: read-out: GI.
The subject of the next assay is NCI-H322M. As to the kind of experiment: Antiproliferative activity against human NCI-H322M cells assessed as growth inhibition at 10 uM after 48 hrs by sulforhodamine B assay relative to control. The conditions noted are these: read-out: GI.
In another assay the test system is HCT-116. The experiment in a line: Antiproliferative activity against human HCT116 cells assessed as growth inhibition at 10 uM after 48 hrs by sulforhodamine B assay relative to control. The conditions noted are these: HCT-116, 48 h, read-out: GI.
In the next assay the test system is NCI/ADR-RES. As to the kind of experiment: Antiproliferative activity against human NCI/ADR-RES cells assessed as growth inhibition at 10 uM after 48 hrs by sulforhodamine B assay relative to control. The conditions noted are these: read-out: GI.
Another assay relates to MCF7. The experiment in a line: Antiproliferative activity against human MCF7 cells assessed as growth inhibition at 10 uM after 48 hrs by sulforhodamine B assay relative to control. As to conditions: MCF7, 48 h, read-out: GI.
A further assay deals with LOX IMVI. As to the kind of experiment: Antiproliferative activity against human LOXIMVI cells assessed as growth inhibition at 10 uM after 48 hrs by sulforhodamine B assay relative to control. As to conditions: read-out: GI.
A further assay has as its system HCT-15. As to the kind of experiment: Antiproliferative activity against human HCT15 cells assessed as growth inhibition at 10 uM after 48 hrs by sulforhodamine B assay relative to control. As to conditions: HCT-15, 48 h, read-out: GI.
Another assay concerns MOLT-4. The experiment in a line: Antiproliferative activity against human MOLT4 cells assessed as growth inhibition at 10 uM after 48 hrs by sulforhodamine B assay relative to control. The conditions noted are these: MOLT-4, 48 h, read-out: GI.
In the next assay the test system is ACHN. The experiment in a line: Antiproliferative activity against human ACHN cells assessed as growth inhibition at 10 uM after 48 hrs by sulforhodamine B assay relative to control. The conditions noted are these: read-out: GI.
In the next assay the test system is UACC-62. The experiment in a line: Antiproliferative activity against human UACC62 cells assessed as growth inhibition at 10 uM after 48 hrs by sulforhodamine B assay relative to control. The conditions noted are these: UACC-62, 48 h, read-out: GI.
Another assay relates to MDA-MB-468. As to the kind of experiment: Antiproliferative activity against human MDA-MB-468 cells assessed as growth inhibition at 10 uM after 48 hrs by sulforhodamine B assay relative to control. As to conditions: MDA-MB-468, 48 h, read-out: GI.
The subject of the next assay is PC-3. The experiment in a line: Antiproliferative activity against human PC3 cells assessed as growth inhibition at 10 uM after 48 hrs by sulforhodamine B assay relative to control. The conditions noted are these: PC-3, 48 h, read-out: GI.
The test system of another assay is HL-60(TB). As to the kind of experiment: Antiproliferative activity against human HL-60(TB) cells assessed as growth inhibition at 10 uM after 48 hrs by sulforhodamine B assay relative to control. The conditions noted are these: HL-60, 48 h, read-out: GI.
Another assay relates to A549. The experiment in a line: Antiproliferative activity against human A549/ATCC cells assessed as growth inhibition at 10 uM after 48 hrs by sulforhodamine B assay relative to control. As to conditions: A549, 48 h, read-out: GI.
A further assay has as its system SK-MEL-5. As to the kind of experiment: Antiproliferative activity against human SK-MEL-5 cells assessed as growth inhibition at 10 uM after 48 hrs by sulforhodamine B assay relative to control. The conditions noted are these: SK-MEL-5, 48 h, read-out: GI.
Another assay concerns OVCAR-4. As to the kind of experiment: Antiproliferative activity against human OVCAR4 cells assessed as growth inhibition at 10 uM after 48 hrs by sulforhodamine B assay relative to control. As to conditions: OVCAR-4, 48 h, read-out: GI.
The next assay relates to NCI-H460. As to the kind of experiment: Antiproliferative activity against human NCI-H460 cells assessed as growth inhibition at 10 uM after 48 hrs by sulforhodamine B assay relative to control. The conditions noted are these: NCI-H460, 48 h, read-out: GI.

As to `CCOC(=O)C1=C(CN2CCCC2)N(C)C(=O)NC1c1ccccc1` (configuration not stated), the inhibition of growth at 10 µM in the assay with UO-31 was 8%; with K562, 1%; in the assay with CAKI-1 it was 9%; in the assay on SF-295, 9%; in the assay with T47D it was 1%; in the assay with NCI-H522, 4%. The inhibition of growth at 10 µM in the assay on SR was determined as 10%; in the assay with NCI-H322M, 9%; with HCT-116, 2%; in the assay with NCI/ADR-RES it was 3%; in the assay on MCF7, 13%; in the assay with LOX IMVI, 8%. For the same compound, the inhibition of growth at 10 µM with HCT-15 is 6%; in the assay on MOLT-4 it was 4%.
With `CCOC(=O)C1=C(CSc2nc3ccccc3[nH]2)N(C)C(=O)NC1c1ccccc1` (configuration not stated), the inhibition of growth at 10 µM in the assay with UO-31 was found to be 4%; in the assay on K562, 10%; in the assay on CAKI-1 it was 2%; in the assay on SF-295, 7%; in the assay with ACHN, 2%; with UACC-62, 11%. Further, the inhibition of growth at 10 µM amounted to 1% in the assay on MDA-MB-468; 3% in the assay with NCI-H522; 1% with SR; 12% with NCI-H322M; 6% in the assay on HCT-116; 6% in the assay with NCI/ADR-RES. Further, the inhibition of growth at 10 µM in the assay with MCF7 is 14%; with PC-3, 8%; in the assay with LOX IMVI, 11%; in the assay with HL-60(TB) it was 6%; in the assay on HCT-15 it was 7%; in the assay on MOLT-4, 14%.
`CCOC(=O)C1=C(CSC(=S)N2CCOCC2)N(C)C(=O)NC1c1ccccc1` (configuration not stated): the inhibition of growth at 10 µM was 9% with UO-31; 83% with K562; 9% in the assay on SF-295; 7% in the assay on ACHN; 16% with UACC-62; 18% with T47D. Moreover, the inhibition of growth at 10 µM with MDA-MB-468 stood at 6%; in the assay with A549 it was 4%; in the assay on NCI-H522, 7%; in the assay on SR, 12%; in the assay with NCI-H322M, 18%; with HCT-116 it was 6%. Besides, the inhibition of growth at 10 µM stood at 1% in the assay with SK-MEL-5; 6% in the assay on NCI/ADR-RES; 14% in the assay on MCF7; 12% in the assay on LOX IMVI; 4% in the assay on HL-60(TB); 7% in the assay with HCT-15. Also, the inhibition of growth at 10 µM in the assay on MOLT-4 turned out to be 5%.
As for `CCOC(=O)C1=C(CSc2nnnn2-c2ccccc2)N(C)C(=O)NC1c1ccccc1` (configuration not stated), the inhibition of growth at 10 µM is 21% in the assay with UO-31; 17% in the assay with K562; 14% in the assay on CAKI-1; 11% in the assay with SF-295; 3% in the assay on ACHN; 17% in the assay with UACC-62. For the same compound, the inhibition of growth at 10 µM in the assay with T47D stood at 17%; in the assay on MDA-MB-468 it was 3%; with NCI-H522 it was 14%; in the assay with SR, 13%; in the assay with NCI-H322M, 18%; in the assay with HCT-116, 12%. For the same compound, the inhibition of growth at 10 µM was 2% in the assay on SK-MEL-5; 14% in the assay on NCI/ADR-RES; 15% in the assay with MCF7; 14% in the assay on LOX IMVI; 7% in the assay with HL-60(TB); 8% with HCT-15. The inhibition of growth at 10 µM with MOLT-4 is 26%; in the assay with OVCAR-4 it was 4%.
Consider `CCOC(=O)C1=C(CSC2=NCCS2)N(C)C(=O)NC1c1ccccc1` (configuration not stated), for which the inhibition of growth at 10 µM stood at 21% with UO-31; 2% in the assay on NCI-H460; 24% in the assay on K562; 24% with CAKI-1; 10% with SF-295; 17% in the assay on ACHN. For the same compound, the inhibition of growth at 10 µM in the assay with UACC-62 worked out at 27%; in the assay on T47D, 37%; in the assay with MDA-MB-468 it was 11%; in the assay with A549, 16%; in the assay on NCI-H522, 19%; with SR, 40%. Besides, the inhibition of growth at 10 µM in the assay on NCI-H322M is 27%; with HCT-116 it was 10%; in the assay with SK-MEL-5 it was 4%; in the assay with NCI/ADR-RES, 15%; with MCF7, 19%; with LOX IMVI, 16%. Moreover, the inhibition of growth at 10 µM amounted to 10% in the assay on HL-60(TB), 28% with HCT-15, 19% in the assay on MOLT-4 and 16% in the assay with OVCAR-4.
Take `CCOC(=O)C1=C(Cn2cc(CO)nn2)N(C)C(=O)NC1c1ccccc1` (configuration not stated): the inhibition of growth at 10 µM was 7% with UO-31; 10% with K562; 8% in the assay with CAKI-1; 4% in the assay on SF-295; 2% in the assay on ACHN; 1% with T47D. The inhibition of growth at 10 µM was 5% with NCI-H522; 2% with SR; 9% in the assay with NCI-H322M; 5% in the assay with HCT-116; 4% in the assay with NCI/ADR-RES; 12% in the assay with MCF7. Further, the inhibition of growth at 10 µM was determined as 7% in the assay on LOX IMVI; 2% with HL-60(TB); 6% in the assay on HCT-15; 11% in the assay with MOLT-4; 3% with OVCAR-4.
`CCOC(=O)C1=C(CSc2nnc(-c3ccccc3)o2)N(C)C(=O)NC1c1ccccc1` (configuration not stated): the inhibition of growth at 10 µM with UO-31 was 34%; in the assay with K562 it was 34%; with CAKI-1, 14%; in the assay on SF-295, 14%; with ACHN, 3%; in the assay with UACC-62, 10%. Moreover, the inhibition of growth at 10 µM was 25% in the assay on T47D; 17% with MDA-MB-468; 5% in the assay with A549; 16% with NCI-H522; 16% in the assay on SR; 15% in the assay on NCI-H322M. For the same compound, the inhibition of growth at 10 µM came to 19% in the assay on HCT-116; 10% in the assay on SK-MEL-5; 15% with NCI/ADR-RES; 11% in the assay with MCF7; 20% with PC-3; 27% in the assay on LOX IMVI. In addition, the inhibition of growth at 10 µM in the assay with HL-60(TB) was 11%; in the assay on HCT-15, 15%; with MOLT-4 it was 29%; in the assay with OVCAR-4, 14%.
